Experimental data taken from PMC4998957 (Nature, 2016).

How the values were obtained:
CAHexamer = CAHexamer (Human immunodeficiency virus type 1 group M subtype B, UniProt P12493, A146C/E177C/M317A/W316A); assay type: binding, HIV-1
[1] = target: CAHexamer (disulfide-stabilised HIV-1 capsid hexamer) (Human immunodeficiency virus type 1 group M subtype B, UniProt P12493, A146C/E177C/M317A/W316A); assay type: binding
[2] = target: disulfide-stabilised HIV-1 capsid protein hexamer (CA_(Hexamer)) R18G (HIV-1); experiment: cross-linking
HIV-1 capsid cores = experiment: Endogenous reverse transcription; assay type: biochemical; details: DNase I and RNase A 100 μg/ml, Benzonase 250 U/ml, 100 μM each dNTP, 16 h

For `Nc1ccn([C@H]2C[C@H](O)[C@@H](COP(=O)(O)OP(=O)(O)OP(=O)(O)O)O2)c(=O)n1` [dCTP], the “on-rate (kon)” value (CAHexamer) was > 2e+08 M⁻¹ s⁻¹, the “half life of complex” value (CAHexamer; equivalent of the off-rate) was 0.058 s and the off-rate (CAHexamer; fluorescent dCTP displaced with excess unlabeled dCTP (20 µM)) was > 12 s⁻¹.

For `Cc1cn([C@H]2C[C@H](O)[C@@H](COP(=O)(O)OP(=O)(O)OP(=O)(O)O)O2)c(=O)[nH]c1=O` [dTTP], the “effect of 1 mM (physiological) inorganic phosphate on hexamer binding” value ([1]; 2 nM fluorescein-labelled dTTP, 1 mM inorganic phosphate) was “no significant effect” and the “comparison of affinity of ribose and deoxyribose nucleoside triphosphates” value ([1]; titration of CAHexamer into labelled nucleotides) was “same affinity”.

“disulfide-stabilised HIV-1 capsid protein hexamer (CA_(Hexamer)) R18G (natural protein)” showed a stoichiometry N [2] of 6.

B1: RNase A: nuclease (protein, UniProt P61823 27-150, looked up)
Ribonuclease pancreatic: KETAAAKFERQHMDSSTSAASSSNYCNQMMKSRNLTKDRCKPVNTFVHESLADVQAVCSQKNVACKNGQTNCYQSYSTMSITDCRETGSSKYPNCAYKTTQANKHIIVACEGNPYVPVHFDASV
In the case of B1, the “effect of nucleases on encapsidated reverse transcription” value (HIV-1 capsid cores) is reported as “failed to prevent”.
